From patent publication US11345681B1, “Inhibitors of fibroblast growth factor receptor kinases” (Kinnate Biopharma Inc., priority 2020, dated 2022)
Read-outs that look alike come from different tables or passages of the source.

Target: Wild type FGFR2 (Homo sapiens (Human), UniProt P21802)
Assay: FGFR2 kinase assay (fluorescence-based microfluidic mobility shift assay)
Format: biochemical
[1] = wild type FGFR2 0.06 nM, 100 μM ATP, 80 minutes at room temperature, class symbols

Sequence of Wild type FGFR2 (P21802 22-821): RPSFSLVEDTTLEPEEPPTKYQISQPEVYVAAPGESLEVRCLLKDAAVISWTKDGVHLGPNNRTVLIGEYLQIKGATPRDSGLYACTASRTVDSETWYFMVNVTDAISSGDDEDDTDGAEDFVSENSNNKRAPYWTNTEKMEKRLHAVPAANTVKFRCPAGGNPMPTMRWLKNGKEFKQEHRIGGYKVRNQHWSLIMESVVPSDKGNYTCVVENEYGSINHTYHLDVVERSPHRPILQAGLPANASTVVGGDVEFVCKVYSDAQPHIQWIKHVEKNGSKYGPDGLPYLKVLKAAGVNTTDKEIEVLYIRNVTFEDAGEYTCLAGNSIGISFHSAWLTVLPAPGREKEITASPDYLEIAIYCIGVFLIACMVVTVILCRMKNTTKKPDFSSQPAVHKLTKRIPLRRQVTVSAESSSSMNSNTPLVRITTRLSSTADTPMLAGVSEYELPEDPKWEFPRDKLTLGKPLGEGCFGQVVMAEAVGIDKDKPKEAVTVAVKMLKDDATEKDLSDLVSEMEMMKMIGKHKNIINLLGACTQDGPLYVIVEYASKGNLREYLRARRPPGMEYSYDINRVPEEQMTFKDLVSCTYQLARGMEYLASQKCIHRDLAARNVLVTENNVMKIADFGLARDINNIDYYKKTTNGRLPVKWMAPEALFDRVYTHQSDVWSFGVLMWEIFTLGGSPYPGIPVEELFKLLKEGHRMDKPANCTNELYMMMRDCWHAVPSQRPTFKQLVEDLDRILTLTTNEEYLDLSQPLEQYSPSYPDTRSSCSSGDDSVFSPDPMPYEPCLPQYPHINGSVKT

| SMILES | IC50 [1] [nM] | IC50 [nM] |
| --- | --- | --- |
| C=CC(=O)N1C[C@@H](n2nc(C#Cc3cc4ncc(C)cc4cc3C)c(C(N)=O)c2NC)C[C@@H]1COC [Example 265, 3-[2-(3,6-Dimethylquinolin-7-yl)ethynyl]-1-[(3S,5R)-5-(methoxymethyl)-1-(prop-2-enoyl)pyrrolidin-3-yl]-5-(methylamino)pyrazole-4-carboxamide] | ≤ 100 | – |
| C=CC(=O)N1C[C@@H](n2nc(C#Cc3cc4nncc(C)c4cc3F)c(C(N)=O)c2NC)C[C@@H]1COC [Example 266, 1-((3S,5R)-1-Acryloyl-5-(methoxymethyl)pyrrolidin-3-yl)-3-((6-fluoro-4-methylcinnolin-7-yl)ethynyl)-5-(methylamino)-1H-pyrazole-4-carboxamide] | ≤ 100 | – |
| C=CC(=O)N1C[C@@H](n2nc(C#Cc3cc4ncc(F)cc4cc3Cl)c(C(N)=O)c2NC)C[C@@H]1COC [Example 267, 3-[2-(6-Chloro-3-fluoroquinolin-7-yl)ethynyl]-1-[(3S,5R)-5-(methoxymethyl)-1-(prop-2-enoyl)pyrrolidin-3-yl]-5-(methylamino)pyrazole-4-carboxamide] | ≤ 100 | – |
| C=CC(=O)N1C[C@@H](n2nc(C#Cc3cc4nncc(C)c4cc3Cl)c(C(N)=O)c2NC)C[C@@H]1COC [Example 268, 1-((3S,5R)-1-acryloyl-5-(methoxymethyl)pyrrolidin-3-yl)-3-((6-chloro-4-methylcinnolin-7-yl)ethynyl)-5-(methylamino)-1H-pyrazole-4-carboxamide] | ≤ 100 | – |
| C=CC(=O)N1C[C@@H](n2nc(C#Cc3cc(OC)c4c(C#N)cnn4c3)c(C(N)=O)c2NC)C[C@@H]1COC [Example 270, 1-((3S,5R)-1-acryloyl-5-(methoxymethyl)pyrrolidin-3-yl)-3-((3-cyano-4-methoxypyrazolo[1,5-a]pyridin-6-yl)ethynyl)-5-(methylamino)-1H-pyrazole-4-carboxamide] | ≤ 100 | – |
| C=CC(=O)N1C[C@@H](n2nc(C#Cc3cc4ncc(C(F)F)cc4cc3F)c(C(N)=O)c2NC)C[C@@H]1COC [Example 273, 3-{2-[3-(Difluoromethyl)-6-fluoroquinolin-7-yl]ethynyl}-1-[(3S,5R)-5-(methoxymethyl)-1-(prop-2-enoyl)pyrrolidin-3-yl]-5-(methylamino)pyrazole-4-carboxamide] | ≤ 100 | – |
| C=CC(=O)N1C[C@@H](n2nc(C#Cc3cc4nccc(C)c4cc3F)c(C(N)=O)c2NC)C[C@@H]1COC [Example 274, 3-[2-(6-Fluoro-4-methylquinolin-7-yl)ethynyl]-1-[(3S,5R)-5-(methoxymethyl)-1-(prop-2-enoyl)pyrrolidin-3-yl]-5-(methylamino)pyrazole-4-carboxamide] | – | < 100 |
| C=CC(=O)N1C[C@@H](n2nc(C#Cc3cc4nccc(C)c4cc3Cl)c(C(N)=O)c2NC)C[C@@H]1COC [Example 281, 3-[2-(6-chloro-4-methylquinolin-7-yl)ethynyl]-1-[(3S,5R)-5-(methoxymethyl)-1-(prop-2-enoyl)pyrrolidin-3-yl]-5-(methylamino)pyrazole-4-carboxamide] | – | < 100 |
| C=CC(=O)N1C[C@@H](n2nc(C#Cc3cc4ncc(Cl)n4cc3F)c(C(N)=O)c2NC)C[C@@H]1COC [Example 290, 3-(2-{3-Chloro-6-fluoroimidazo[1,2-a]pyridin-7-yl}ethynyl)-1-[(3S,5R)-5-(methoxymethyl)-1-(prop-2-enoyl)pyrrolidin-3-yl]-5-(methylamino)pyrazole-4-carboxamide] | ≤ 100 | – |

Now from value to compound, other results behind:

| IC50 [1] [nM] | SMILES | IC50 [nM] |
| --- | --- | --- |
| ≤ 100 | C=CC(=O)N1C[C@@H](n2nc(C#Cc3cccc4c3cnn4C)c(C(N)=O)c2NC)C[C@@H]1COC [Example 275, 1-((3S,5R)-1-Acryloyl-5-(methoxymethyl)pyrrolidin-3-yl)-3-((1-methyl-1H-indazol-4-yl)ethynyl)-5-(methylamino)-1H-pyrazole-4-carboxamide] | – |
| ≤ 100 | C=CC(=O)N1C[C@@H](n2nc(C#Cc3cccc4c3cnn4C3CC3)c(C(N)=O)c2NC)C[C@@H]1COC [Example 276, 3-[2-(1-Cyclopropylindazol-4-yl)ethynyl]-1-[(3S,5R)-5-(methoxymethyl)-1-(prop-2-enoyl)pyrrolidin-3-yl]-5-(methylamino)pyrazole-4-carboxamide] | – |
| ≤ 100 | C=CC(=O)N1C[C@@H](n2nc(C#Cc3cccn4cncc34)c(C(N)=O)c2NC)C[C@@H]1COC [Example 277, 3-(2-{Imidazo[1,5-a]pyridin-8-yl}ethynyl)-1-[(3S,5R)-5-(methoxymethyl)-1-(prop-2-enoyl)pyrrolidin-3-yl]-5-(methylamino)pyrazole-4-carboxamide] | – |
| ≤ 100 | C=CC(=O)N1C[C@@H](n2nc(C#Cc3cccc4cncn34)c(C(N)=O)c2NC)C[C@@H]1COC [Example 278, 3-(2-{Imidazo[1,5-a]pyridin-5-yl}ethynyl)-1-[(3S,5R)-5-(methoxymethyl)-1-(prop-2-enoyl)pyrrolidin-3-yl]-5-(methylamino)pyrazole-4-carboxamide] | – |
| ≤ 100 | C=CC(=O)N1C[C@@H](n2nc(C#Cc3cc4ncc(C5CC5)n4cc3F)c(C(N)=O)c2NC)C[C@@H]1COC [Example 283, 3-(2-{3-Cyclopropyl-6-fluoroimidazo[1,2-a]pyridin-7-yl}ethynyl)-1-[(3S,5R)-5-(methoxymethyl)-1-(prop-2-enoyl)pyrrolidin-3-yl]-5-(methylamino)pyrazole-4-carboxamide] | – |
| 100 to 1000 | C=CC(=O)N1C[C@@H](n2nc(C#Cc3cc(OC)c4c(C5CC5)cnn4c3)c(C(N)=O)c2NC)C[C@@H]1COC [Example 284, 3-(2-{3-Cyclopropyl-4-methoxypyrazolo[1,5-a]pyridin-6-yl}ethynyl)-1-[(3S,5R)-5-(methoxymethyl)-1-(prop-2-enoyl)pyrrolidin-3-yl]-5-(methylamino)pyrazole-4-carboxamide] | – |
| ≤ 100 | C=CC(=O)N1C[C@@H](n2nc(C#Cc3cc4nc5n(c4cc3Cl)CCC5)c(C(N)=O)c2NC)C[C@@H]1COC [Example 285, 1-((3S,5R)-1-Acryloyl-5-(methoxymethyl)pyrrolidin-3-yl)-3-((7-chloro-2,3-dihydro-1H-benzo[d]pyrrolo[1,2-a]imidazol-6-yl)ethynyl)-5-(methylamino)-1H-pyrazole-4-carboxamide] | – |
| ≤ 100 | C=CC(=O)N1C[C@@H](n2nc(C#Cc3c(F)ccc4c3cnn4C3CC3)c(C(N)=O)c2NC)C[C@@H]1COC [Example 287, 1-((3S,5R)-1-Acryloyl-5-(methoxymethyl)pyrrolidin-3-yl)-3-((1-cyclopropyl-5-fluoro-1H-indazol-4-yl)ethynyl)-5-(methylamino)-1H-pyrazole-4-carboxamide] | – |
